Measured values reported in the NIST ThermoML archive (doi:10.1021/acs.jced.8b00554).

Assay: xn = mol fraction of the nth substance listed
Details: Liquid, Vibrating tube method

CCCCCCCCC [nonane] + CCCO
mass density [kg/m3]
Details | 343.15 K | 353.15 K
100 kPa, x2 = 0.1231 | – | 666.99
100 kPa, x2 = 0.2315 | – | 669.25
100 kPa, x2 = 0.3229 | – | 671.68
100 kPa, x2 = 0.4272 | – | 676.17
100 kPa, x2 = 0.7021 | – | 697.1
100 kPa, x2 = 0.8941 | – | 723.67
1000 kPa, x2 = 0.3229 | – | 672.91
1000 kPa, x2 = 0.4272 | – | 677.15
1000 kPa, x2 = 0.7021 | – | 697.4
1010 kPa, x2 = 0.1231 | 677.59 | 667.83
1010 kPa, x2 = 0.2315 | – | 670.69
1010 kPa, x2 = 0.4272 | 689.57 | –
1010 kPa, x2 = 0.7021 | 711.27 | –
1010 kPa, x2 = 0.8941 | 737.45 | 724.26
1020 kPa, x2 = 0.3229 | 684.46 | –
2000 kPa, x2 = 0.1231 | – | 668.99
2000 kPa, x2 = 0.2315 | – | 671.87
2000 kPa, x2 = 0.3229 | 685.59 | –
2010 kPa, x2 = 0.1231 | 678.71 | –
2010 kPa, x2 = 0.2315 | 682.42 | –
2010 kPa, x2 = 0.4272 | 690.68 | 678.31
2010 kPa, x2 = 0.7021 | 712.38 | 698.58
2010 kPa, x2 = 0.8941 | 738.5 | –
2020 kPa, x2 = 0.3229 | – | 674.1
2020 kPa, x2 = 0.8941 | – | 725.38
3000 kPa, x2 = 0.3229 | 686.69 | –
3000 kPa, x2 = 0.4272 | 691.79 | –
3000 kPa, x2 = 0.7021 | 713.46 | –
3010 kPa, x2 = 0.1231 | 679.8 | –
3010 kPa, x2 = 0.2315 | – | 673.01
3010 kPa, x2 = 0.3229 | – | 675.25
3010 kPa, x2 = 0.4272 | – | 679.49
3010 kPa, x2 = 0.7021 | – | 699.75
3010 kPa, x2 = 0.8941 | 739.56 | 726.49
3020 kPa, x2 = 0.1231 | – | 670.15
3020 kPa, x2 = 0.2315 | 683.53 | –
4000 kPa, x2 = 0.4272 | – | 680.67
4010 kPa, x2 = 0.1231 | – | 671.29
4010 kPa, x2 = 0.2315 | 684.63 | –
4010 kPa, x2 = 0.3229 | 687.78 | 676.42
4010 kPa, x2 = 0.7021 | 714.57 | 700.94
4010 kPa, x2 = 0.8941 | – | 727.63
4020 kPa, x2 = 0.1231 | 680.88 | –
4020 kPa, x2 = 0.2315 | – | 674.2
4020 kPa, x2 = 0.4272 | 692.9 | –
4020 kPa, x2 = 0.8941 | 740.61 | –
5000 kPa, x2 = 0.1231 | 681.97 | –
5000 kPa, x2 = 0.4272 | – | 681.83
5000 kPa, x2 = 0.7021 | 715.67 | –
5010 kPa, x2 = 0.1231 | – | 672.43
5010 kPa, x2 = 0.2315 | – | 675.32
5010 kPa, x2 = 0.3229 | 688.88 | –
5010 kPa, x2 = 0.4272 | 694 | –
5010 kPa, x2 = 0.7021 | – | 702.12
5010 kPa, x2 = 0.8941 | 741.67 | 728.78
5020 kPa, x2 = 0.2315 | 685.69 | –
5020 kPa, x2 = 0.3229 | – | 677.57
6000 kPa, x2 = 0.1231 | – | 673.56
6000 kPa, x2 = 0.4272 | – | 683.02
6010 kPa, x2 = 0.1231 | 683.04 | –
6010 kPa, x2 = 0.2315 | – | 676.43
6010 kPa, x2 = 0.3229 | 689.97 | 678.73
6010 kPa, x2 = 0.4272 | 695.09 | –
6010 kPa, x2 = 0.7021 | 716.75 | 703.28
6010 kPa, x2 = 0.8941 | – | 729.91
6020 kPa, x2 = 0.2315 | 686.75 | –
6020 kPa, x2 = 0.8941 | 742.73 | –
7000 kPa, x2 = 0.2315 | – | 677.57
7000 kPa, x2 = 0.3229 | 691.04 | –
7000 kPa, x2 = 0.8941 | 743.78 | –
7010 kPa, x2 = 0.2315 | 687.82 | –
7010 kPa, x2 = 0.3229 | – | 679.88
7010 kPa, x2 = 0.4272 | 696.18 | –
7010 kPa, x2 = 0.8941 | – | 731.05
7020 kPa, x2 = 0.1231 | 684.1 | 674.7
7020 kPa, x2 = 0.4272 | – | 684.19
7020 kPa, x2 = 0.7021 | 717.84 | 704.46
8000 kPa, x2 = 0.2315 | 688.91 | –
8000 kPa, x2 = 0.3229 | – | 681.03
8000 kPa, x2 = 0.7021 | – | 705.61
8000 kPa, x2 = 0.8941 | 744.82 | –
8010 kPa, x2 = 0.1231 | – | 675.84
8010 kPa, x2 = 0.3229 | 692.11 | –
8010 kPa, x2 = 0.4272 | 697.28 | 685.36
8010 kPa, x2 = 0.8941 | – | 732.17
8020 kPa, x2 = 0.1231 | 685.16 | –
8020 kPa, x2 = 0.2315 | – | 678.73
8020 kPa, x2 = 0.7021 | 718.92 | –
9000 kPa, x2 = 0.1231 | – | 676.94
9000 kPa, x2 = 0.2315 | – | 679.85
9010 kPa, x2 = 0.1231 | 686.2 | –
9010 kPa, x2 = 0.2315 | 689.96 | –
9010 kPa, x2 = 0.3229 | 693.2 | 682.18
9010 kPa, x2 = 0.4272 | – | 686.5
9010 kPa, x2 = 0.7021 | – | 706.79
9010 kPa, x2 = 0.8941 | 745.86 | 733.3
9020 kPa, x2 = 0.4272 | 698.35 | –
9020 kPa, x2 = 0.7021 | 720.01 | –
10000 kPa, x2 = 0.2315 | 690.99 | 680.95
10000 kPa, x2 = 0.4272 | – | 687.67
10000 kPa, x2 = 0.7021 | 721.05 | –
10000 kPa, x2 = 0.8941 | 746.88 | –
10010 kPa, x2 = 0.1231 | 687.25 | 678.03
10010 kPa, x2 = 0.3229 | 694.26 | 683.34
10010 kPa, x2 = 0.7021 | – | 707.93
10010 kPa, x2 = 0.8941 | – | 734.42
10020 kPa, x2 = 0.4272 | 699.44 | –
11000 kPa, x2 = 0.3229 | 695.31 | –
11000 kPa, x2 = 0.4272 | 700.47 | –
11010 kPa, x2 = 0.1231 | 688.29 | –
11010 kPa, x2 = 0.7021 | 722.11 | –
11020 kPa, x2 = 0.2315 | 692.04 | –
11020 kPa, x2 = 0.8941 | 747.91 | –
12000 kPa, x2 = 0.3229 | 696.36 | –
12010 kPa, x2 = 0.1231 | 689.31 | –
12010 kPa, x2 = 0.2315 | 693.08 | –
12010 kPa, x2 = 0.4272 | 701.53 | –
12010 kPa, x2 = 0.8941 | 748.9 | –
12020 kPa, x2 = 0.7021 | 723.13 | –
13010 kPa, x2 = 0.4272 | 702.56 | –
13010 kPa, x2 = 0.8941 | 749.87 | –
13020 kPa, x2 = 0.1231 | 690.32 | –
13020 kPa, x2 = 0.2315 | 694.1 | –
13020 kPa, x2 = 0.3229 | 697.39 | –
13020 kPa, x2 = 0.7021 | 724.18 | –
14000 kPa, x2 = 0.1231 | 691.3 | –
14000 kPa, x2 = 0.3229 | 698.41 | –
14000 kPa, x2 = 0.8941 | 750.86 | –
14010 kPa, x2 = 0.2315 | 695.1 | –
14010 kPa, x2 = 0.7021 | 725.19 | –
14020 kPa, x2 = 0.4272 | 703.57 | –
15010 kPa, x2 = 0.1231 | 692.28 | –
15010 kPa, x2 = 0.4272 | 704.56 | –
15010 kPa, x2 = 0.7021 | 726.16 | –
15010 kPa, x2 = 0.8941 | 751.83 | –
15020 kPa, x2 = 0.2315 | 696.09 | –
15020 kPa, x2 = 0.3229 | 699.39 | –
16000 kPa, x2 = 0.8941 | 752.78 | –
16010 kPa, x2 = 0.1231 | 693.22 | –
16010 kPa, x2 = 0.7021 | 727.16 | –
16020 kPa, x2 = 0.2315 | 697.06 | –
16020 kPa, x2 = 0.3229 | 700.38 | –
16020 kPa, x2 = 0.4272 | 705.54 | –
17000 kPa, x2 = 0.1231 | 694.17 | –
17000 kPa, x2 = 0.3229 | 701.35 | –
17000 kPa, x2 = 0.4272 | 706.5 | –
17010 kPa, x2 = 0.7021 | 728.12 | –
17020 kPa, x2 = 0.2315 | 698.04 | –
17020 kPa, x2 = 0.8941 | 753.71 | –
18010 kPa, x2 = 0.1231 | 695.1 | –
18010 kPa, x2 = 0.2315 | 698.96 | –
18010 kPa, x2 = 0.7021 | 729.04 | –
18020 kPa, x2 = 0.3229 | 702.27 | –
18020 kPa, x2 = 0.4272 | 707.45 | –
18020 kPa, x2 = 0.8941 | 754.62 | –
19000 kPa, x2 = 0.2315 | 699.84 | –
19000 kPa, x2 = 0.3229 | 703.2 | –
19000 kPa, x2 = 0.7021 | 729.96 | –
19000 kPa, x2 = 0.8941 | 755.52 | –
19010 kPa, x2 = 0.1231 | 695.98 | –
19010 kPa, x2 = 0.4272 | 708.36 | –
20000 kPa, x2 = 0.4272 | 709.29 | –
20010 kPa, x2 = 0.1231 | 696.86 | –
20010 kPa, x2 = 0.2315 | 700.72 | –
20010 kPa, x2 = 0.3229 | 704.07 | –
20010 kPa, x2 = 0.7021 | 730.88 | –
20020 kPa, x2 = 0.8941 | 756.41 | –
